From ChEMBL document CHEMBL1133765, “QSAR model for drug human oral bioavailability” (J Med Chem, 2000) come the findings set out here.

By logD is commonly meant lipophilicity at a set pH, counting ionised and neutral species. Lower therefore signals a more hydrophilic compound. The term bioavailability denotes dose-corrected exposure relative to a reference, in per cent. A lower bioavailability goes with little systemic uptake. Usually pKa stands for the negative logarithm of the acid dissociation constant.

Each structure is given as a SMILES string. Where only a bound is given, the exact number is not on record here.

Data set [1] is described as follows: Partition coefficient (logD6.5). Format: physicochemical. Particulars: octanol/water, pH 6.5.
For data set [2] the following is noted: octanol/water.
Data set [3] in a line: clinical. Particulars: human, in vivo, po.
The conditions of data set [4]: human, in vivo, po.
The conditions of data set [5]: octanol/water. This is another data set of the same source.
The conditions of data set [6]: octanol/water. This is another data set of the same source.
Data set [7] in a line: clinical. Particulars: human, in vivo, po. The source holds these as a separate data set.
Data set [8] is described as follows: physchem.
The nature of data set [9]: physchem. Particulars: octanol/water, pH 6.5.
The nature of data set [10]: Oral bioavailability in human. Format: ADME, organism-based. Particulars: in vivo.
Data set [11] can be described thus: physchem. Particulars: octanol/water, pH 6.5, logD.
For data set [12] the following is noted: octanol/water. The source holds these as a separate data set.
A short description of data set [13]: clinical. Particulars: human, in vivo, po. This is another data set of the same source.

`CO/C(O)=C1\C(C)=NC(C)=C(C(=O)OC(C)C)C1c1cccc2nonc12` (stereo unspecified) returned a logD in [1] of 1.72. Moreover, in data set [2], the “delta logD” value was 0. For the same compound, the bioavailability in “clinical [3]” (F) was no more than 20%.

Compound `Nc1ccn([C@H]2CC[C@@H](CO)O2)c(=O)n1` (stereo in doubt; 1) [ZALCITABINE] showed a F in data set [4] of less than 20%. For the same compound, the logD in [5] is 3.2.

In the case of `Nc1ccn([C@H]2CC[C@@H](CO)O2)c(=O)n1` (stereo in doubt; 232) [ZALCITABINE], in data set [4], the F is on record as greater than 80%. The “delta logD” value in data set [6] worked out at 0.

For the compound `CC[C@H]1[C@@H]2C[C@H]3[C@@H]4N(C)c5ccccc5[C@]45C[C@@H]([C@@H]2[C@H]5O)N3[C@@H]1O` [AJMALINE], the “delta logD” value in data set [2] is on record as -0.25. Further, the bioavailability in “clinical [7]” came out at 49%. Besides, the pKa in the data set “physchem [8]” was 6.5. Also, the logD in “physchem [9]” was 2.42.

In the case of `O=C1C(O)=C([C@H]2CC[C@H](c3ccc(Cl)cc3)CC2)C(=O)c2ccccc21` [ATOVAQUONE], the bioavailability in [10] worked out at 49%. This compound came in with a logD in the data set “physchem [11]” of 3.96.

Turning to `CC(C)NCC(O)COc1ccc(CCOCC2CC2)cc1` (stereo unspecified) [BETAXOLOL], the “delta logD” value in [6] is on record as -0.9. In data set [5] (pH 6.5), this compound had a log distribution coefficient (logD) of -0.07. Moreover, the bioavailability in “clinical [3]” (F) is greater than 80%. In the data set “physchem [8]”, this compound displayed a pKa of 9.4.

Take `COc1ccccc1OCCNCC(O)COc1cccc2[nH]c3ccccc3c12` (stereo unspecified) [CARVEDILOL]: the “delta logD” value in data set [2] is listed as -0.9. In the data set “clinical [7]”, this compound displayed a bioavailability of 49%. The compound further yielded a pKa in “physchem [8]” of 9.3. In addition, the logD in the data set “physchem [9]” worked out at 1.31.

As for `O=C(O)CCCc1ccc(N(CCCl)CCCl)cc1` [CHLORAMBUCIL], the “delta logD” value in [6] is reported as 0.82. In [5], this compound yielded a logD of 2.29. The bioavailability in “clinical [3]” was greater than 80%.

For the compound `NS(=O)(=O)c1cc2c(cc1Cl)N=CNS2(=O)=O` [CHLOROTHIAZIDE], the “delta logD” value in [2] is given as 0.57. In the data set “clinical [7]”, this compound gave a bioavailability of 49%. The compound further came in with a pKa in “physchem [8]” of 6.7. The compound further gave a logD in “physchem [9]” of -0.45.

Regarding `COc1cc(N)c(Cl)cc1C(=O)NC1CCN(CCCOc2ccc(F)cc2)CC1OC` (stereo unspecified) [CISAPRIDE], the “delta logD” value in data set [2] is reported as -0.75. Besides, in the data set “clinical [7]”, the bioavailability is 49%. In the data set “physchem [8]”, this compound displayed a pKa of 7.7. The logD in “physchem [9]” was found to be 1.79.

Consider `CN1CCC[C@@H]1CCO[C@](C)(c1ccccc1)c1ccc(Cl)cc1` [CLEMASTINE], for which the “delta logD” value in data set [2] is -0.89. The compound further returned a bioavailability in the data set “clinical [7]” of 49%. This compound returned a pKa in the data set “physchem [8]” of 9.2. The same compound displayed a logD in the data set “physchem [9]” of 1.65.

Regarding `COc1ccc2c3c1O[C@H]1[C@@H](O)C=C[C@H]4[C@@H](C2)N(C)CC[C@@]341` [CODEINE], the “delta logD” value in [6] is reported as -0.8. Also, in data set [5], the logD was -0.28. The bioavailability in the data set “clinical [3]” came to 79%.

For `CCC(C)(C)NCC(O)COc1ccccc1C(=O)CCc1ccccc1` (stereo unspecified) [DIPRAFENONE], in data set [2], the “delta logD” value is given as -0.89. In “clinical [7]”, this compound came in with a bioavailability of 49%. The same compound returned a pKa in the data set “physchem [8]” of 9.2. The same compound came in with a pH-dependent lipophilicity (logD) in the data set “physchem [9]” of 0.59.

As for `CN(C)CCC=C1c2ccccc2COc2ccccc21` [DOXEPIN], the “delta logD” value in data set [2] is recorded as -0.82. In addition, in “clinical [7]”, the bioavailability was found to be 49%. For the same compound, in the data set “physchem [8]”, the pKa is 8. Further, the logD in the data set “physchem [9]” was found to be 1.55.

Regarding `COc1ccc(C(=O)Nc2ccccc2CCC2CCCCN2C)cc1` (stereo unspecified) [ENCAINIDE], the “delta logD” value in data set [2] was -0.9. Further, the bioavailability in the data set “clinical [7]” is 49%. Moreover, the pKa in “physchem [8]” came to 10.2. Also, in “physchem [9]”, the logD is -0.34.

Turning to `CC[C@@H](CO)NCCN[C@@H](CC)CO` [ETHAMBUTOL], the “delta logD” value in data set [2] is -0.9. Also, the logD in data set [12] was -4.02. The compound also had a bioavailability in the data set “clinical [13]” of 79%. Further, the pKa in the data set “physchem [8]” turned out to be 9.5.

Consider `NC(N)=Nc1nc(CSCCC(N)=NS(N)(=O)=O)cs1` [FAMOTIDINE], for which, in data set [2], the “delta logD” value is on record as -0.52. Moreover, the bioavailability in the data set “clinical [7]” amounted to 49%. In “physchem [8]”, this compound yielded a pKa of 7.1. The same compound gave a logD in the data set “physchem [9]” of -1.27.

In the case of `CC(C)n1c(/C=C/C(O)CC(O)CC(=O)O)c(-c2ccc(F)cc2)c2ccccc21` (stereo unspecified) [FLUVASTATIN], the “delta logD” value in data set [2] is recorded as 0.9. The bioavailability in the data set “clinical [7]” stood at 49%. This compound yielded a pKa in the data set “physchem [8]” of 4.5. Moreover, in the data set “physchem [9]”, the logD came out at 1.42.

With `O=C(NC1CCN(CCc2c[nH]c3ccccc23)CC1)c1ccccc1` [INDORAMIN], the “delta logD” value in [2] is recorded as -0.75. This compound had a bioavailability in “clinical [7]” of 49%. In addition, the pKa in the data set “physchem [8]” was 7.7. This compound had a logD in the data set “physchem [9]” of 1.56.

As to `CC(CCc1ccccc1)NCC(O)c1ccc(O)c(C(N)=O)c1` (stereo unspecified) [LABETALOL], the “delta logD” value in data set [2] is reported as -0.9. Also, the bioavailability in “clinical [7]” is 49%. Also, the pKa in “physchem [8]” came out at 9.3. Also, the logD in “physchem [9]” was 0.35.

Regarding `CN(Cc1cnc2nc(N)nc(N)c2n1)c1ccc(C(=O)N[C@@H](CCC(=O)O)C(=O)O)cc1` [METHOTREXATE], the “delta logD” value in data set [2] worked out at 0.9. This compound also displayed a logD in data set [12] of -4.55. In “clinical [13]”, this compound gave a bioavailability of 79%.

Turning to `Cc1ncc2n1-c1ccc(Cl)cc1C(c1ccccc1F)=NC2` [MIDAZOLAM], the “delta logD” value in [2] is given as -0.14. Moreover, the bioavailability in “clinical [7]” was found to be 49%. In the data set “physchem [8]”, the pKa was found to be 6.1. Besides, the logD in “physchem [9]” was determined as 1.37.

In the case of `CCOC(=O)Nc1ccc2c(c1)N(C(=O)CCN1CCOCC1)c1ccccc1S2` [MORICIZINE], the “delta logD” value in data set [2] was -0.21. The compound also returned a bioavailability in “clinical [7]” of 49%. This compound also gave a pKa in “physchem [8]” of 6.4. Moreover, the logD in “physchem [9]” came out at 2.73.

Take `CC(C)(C)NCC(O)COc1cccc2c1CC(O)C(O)C2` (stereo unspecified) [NADOLOL]: the “delta logD” value in data set [2] is reported as -0.9. In data set [12], this compound displayed a logD of -2.46. In “clinical [7]”, the bioavailability amounted to 49%. Besides, in the data set “physchem [8]”, the pKa is 9.7.

For the compound `CCOC(=O)C1=C(C)NC(C)=C(C(=O)OC)C1c1cccc([N+](=O)[O-])c1` (stereo unspecified) [NITRENDIPINE], in [6], the “delta logD” value came to 0. Also, the logD in data set [5] stood at 0.97. The bioavailability in the data set “clinical [3]” (F) is less than 20%.

On to `Cc1onc(-c2ccccc2)c1C(=O)N[C@@H]1C(=O)N2[C@@H]1SC(C)(C)[C@@H]2C(=O)O` [OXACILLIN], for which the “delta logD” value in data set [2] is 0.9. The compound also yielded a bioavailability in “clinical [7]” of 49%. Further, the logD in “physchem [9]” is -1.32.

Take `C=CCOc1ccccc1OCC(O)CNC(C)C` (stereo unspecified) [OXPRENOLOL]: in [2], the “delta logD” value was -0.9. This compound yielded a logD in data set [12] (pH 6.5) of -0.72. For the same compound, the bioavailability in the data set “clinical [7]” was 49%. In the data set “physchem [8]”, the pKa was 9.3.

As for `OCCN1CCN(CCCN2c3ccccc3Sc3ccc(Cl)cc32)CC1` [PERPHENAZINE], in [2], the “delta logD” value is listed as -0.77. For the same compound, the logD in data set [12] came out at 2.88. The compound further gave a bioavailability in “clinical [13]” of 79%.

For the compound `CN1CCN(CC(=O)N2c3ccccc3C(=O)Nc3cccnc32)CC1` [PIRENZEPINE], in [2], the “delta logD” value is given as -0.83. In data set [12], this compound came in with a logD of -1.51. For the same compound, in the data set “clinical [7]”, the bioavailability worked out at 49%. Also, in the data set “physchem [8]”, the pKa turned out to be 8.1.

In the case of `CC(C)NC[C@H](O)COc1ccc(O)cc1` [PRENALTEROL], the “delta logD” value in data set [2] is recorded as -0.89. The same compound yielded a bioavailability in the data set “clinical [7]” of 49%. The pKa in the data set “physchem [8]” worked out at 9.2. In “physchem [9]”, this compound came in with a logD of -1.61.

Turning to `CC(CN1c2ccccc2Sc2ccccc21)N(C)C` (stereo unspecified) [PROMETHAZINE], the “delta logD” value in data set [2] is -0.89. Also, the bioavailability in “clinical [7]” came out at 49%. In “physchem [9]”, this compound gave a logD of 2.21.

`CCC(=O)O[C@](Cc1ccccc1)(c1ccccc1)[C@H](C)CN(C)C` [PROPOXYPHENE]: the “delta logD” value in data set [2] is listed as -0.89. Besides, the bioavailability in the data set “clinical [7]” is 49%. The compound also yielded a logD in the data set “physchem [9]” of 2.2.

As for `O=C(c1ccc(OCCN2CCCCC2)cc1)c1c(-c2ccc(O)cc2)sc2cc(O)ccc12` [RALOXIFENE], the “delta logD” value in data set [6] is reported as -0.9. The pH-dependent lipophilicity (logD) in [5] (pH 6.5) is recorded as 1.08. For the same compound, in the data set “clinical [3]” (F), the bioavailability is less than 20%. Also, the pKa in the data set “physchem [8]” was 9.

Take `CNC(=C[N+](=O)[O-])NCCSCc1ccc(CN(C)C)o1` [RANITIDINE]: the “delta logD” value in data set [6] is -0.84. In data set [5] (pH 6.5), the log distribution coefficient (logD) is given as -1.44. Besides, the bioavailability in “clinical [3]” (F) worked out at 79%.

For `CC(NCCc1ccc(O)cc1)C(O)c1ccc(O)cc1` (stereo unspecified) [RITODRINE], in data set [2], the “delta logD” value is -0.89. The bioavailability in the data set “clinical [7]” turned out to be 49%. For the same compound, the logD in the data set “physchem [9]” was -1.

As to `CSc1ccc2c(c1)N(CCC1CCCCN1C)c1ccccc1S2` (stereo unspecified) [THIORIDAZINE], the “delta logD” value in [2] is -0.9. The same compound showed a bioavailability in the data set “clinical [7]” of 49%. In “physchem [9]”, the logD was 2.9.
